These results are taken from ChEMBL document CHEMBL3991601, “The target landscape of clinical kinase drugs” (Science, 2017).

Assay [1] concerns the target Interleukin-1 receptor-associated kinase 1 (Homo sapiens, UniProt P51617).
The target in assay [2] is T1, Glycogen phosphorylase, liver form (Homo sapiens, UniProt P06737).
T1 sequence (P06737 whole entry): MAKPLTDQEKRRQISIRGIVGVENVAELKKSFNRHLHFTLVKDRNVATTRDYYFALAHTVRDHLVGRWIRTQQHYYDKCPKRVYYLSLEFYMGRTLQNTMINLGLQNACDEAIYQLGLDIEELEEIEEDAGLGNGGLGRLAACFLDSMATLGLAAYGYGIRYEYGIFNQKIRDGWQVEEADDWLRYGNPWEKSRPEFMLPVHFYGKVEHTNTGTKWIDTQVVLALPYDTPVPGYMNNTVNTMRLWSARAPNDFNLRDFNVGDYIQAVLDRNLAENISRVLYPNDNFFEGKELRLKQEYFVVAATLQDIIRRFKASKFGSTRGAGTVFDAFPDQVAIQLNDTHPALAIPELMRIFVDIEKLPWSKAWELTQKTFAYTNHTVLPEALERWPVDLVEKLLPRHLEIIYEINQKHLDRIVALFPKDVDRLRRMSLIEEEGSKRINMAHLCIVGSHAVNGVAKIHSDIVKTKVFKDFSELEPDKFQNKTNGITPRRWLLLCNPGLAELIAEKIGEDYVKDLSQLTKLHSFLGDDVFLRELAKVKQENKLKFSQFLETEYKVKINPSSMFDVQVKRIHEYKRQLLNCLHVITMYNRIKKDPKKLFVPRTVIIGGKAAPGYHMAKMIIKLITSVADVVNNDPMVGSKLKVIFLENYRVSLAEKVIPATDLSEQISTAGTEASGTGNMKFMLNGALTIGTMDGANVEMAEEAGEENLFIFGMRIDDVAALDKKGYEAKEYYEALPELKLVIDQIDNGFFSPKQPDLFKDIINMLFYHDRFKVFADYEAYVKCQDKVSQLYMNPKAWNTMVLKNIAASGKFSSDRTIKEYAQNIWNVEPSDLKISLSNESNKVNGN
In kind it is subcellular, K-562, COLO 205, SK-N-BE(2) and MV-4-11, Cell lysate. The conditions noted are these: read-out: Kd apparent.

In assay [3] the target is Mitogen-activated protein kinase kinase kinase 20 (Homo sapiens, UniProt Q9NYL2).
Assay [4] concerns the target Tyrosine-protein kinase BTK (Homo sapiens, UniProt Q06187).
Assay [5] has as its target T2, Breakpoint cluster region protein (Homo sapiens, UniProt P11274).
T2 sequence (P11274 whole entry): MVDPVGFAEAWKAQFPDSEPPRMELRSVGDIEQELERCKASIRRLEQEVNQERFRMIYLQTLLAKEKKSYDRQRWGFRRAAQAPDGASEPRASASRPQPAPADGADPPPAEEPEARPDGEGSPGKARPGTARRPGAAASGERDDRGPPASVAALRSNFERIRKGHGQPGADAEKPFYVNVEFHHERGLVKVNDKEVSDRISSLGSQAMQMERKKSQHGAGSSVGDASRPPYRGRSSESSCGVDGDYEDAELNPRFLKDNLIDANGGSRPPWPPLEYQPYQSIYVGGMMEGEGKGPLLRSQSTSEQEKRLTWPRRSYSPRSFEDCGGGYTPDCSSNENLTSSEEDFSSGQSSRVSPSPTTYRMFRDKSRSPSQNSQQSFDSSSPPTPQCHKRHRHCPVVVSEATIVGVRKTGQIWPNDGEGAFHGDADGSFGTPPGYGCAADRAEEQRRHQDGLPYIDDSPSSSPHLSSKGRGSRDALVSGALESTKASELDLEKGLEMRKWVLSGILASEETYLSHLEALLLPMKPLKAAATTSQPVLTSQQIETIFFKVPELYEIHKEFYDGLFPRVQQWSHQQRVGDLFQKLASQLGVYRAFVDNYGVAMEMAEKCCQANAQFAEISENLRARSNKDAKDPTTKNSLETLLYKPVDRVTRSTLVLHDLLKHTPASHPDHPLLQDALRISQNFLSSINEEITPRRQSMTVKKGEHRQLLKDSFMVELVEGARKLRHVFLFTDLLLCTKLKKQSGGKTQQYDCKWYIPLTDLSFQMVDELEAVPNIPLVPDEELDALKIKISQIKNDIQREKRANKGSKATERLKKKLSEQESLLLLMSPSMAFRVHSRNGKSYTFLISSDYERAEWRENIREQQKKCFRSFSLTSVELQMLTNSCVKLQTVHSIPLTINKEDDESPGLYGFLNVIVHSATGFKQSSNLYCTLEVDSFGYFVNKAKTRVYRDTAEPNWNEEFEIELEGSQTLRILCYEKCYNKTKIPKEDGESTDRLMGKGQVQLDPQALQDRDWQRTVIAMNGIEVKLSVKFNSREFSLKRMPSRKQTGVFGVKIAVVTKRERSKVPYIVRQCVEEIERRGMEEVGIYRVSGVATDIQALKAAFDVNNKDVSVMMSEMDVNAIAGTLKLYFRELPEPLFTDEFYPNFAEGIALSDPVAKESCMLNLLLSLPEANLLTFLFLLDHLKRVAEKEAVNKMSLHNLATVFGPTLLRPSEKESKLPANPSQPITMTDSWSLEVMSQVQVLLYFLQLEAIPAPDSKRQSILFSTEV

The source made the active and inactive calls. Cut-off read from the data, not from the text of the source, for most assays here: actives have a measured Kd and inactives only a lower limit.
Note: in the data inactive means no Kd found up to 30 µM.

Chain of Tyrosine-protein kinase BTK (Q06187 whole entry): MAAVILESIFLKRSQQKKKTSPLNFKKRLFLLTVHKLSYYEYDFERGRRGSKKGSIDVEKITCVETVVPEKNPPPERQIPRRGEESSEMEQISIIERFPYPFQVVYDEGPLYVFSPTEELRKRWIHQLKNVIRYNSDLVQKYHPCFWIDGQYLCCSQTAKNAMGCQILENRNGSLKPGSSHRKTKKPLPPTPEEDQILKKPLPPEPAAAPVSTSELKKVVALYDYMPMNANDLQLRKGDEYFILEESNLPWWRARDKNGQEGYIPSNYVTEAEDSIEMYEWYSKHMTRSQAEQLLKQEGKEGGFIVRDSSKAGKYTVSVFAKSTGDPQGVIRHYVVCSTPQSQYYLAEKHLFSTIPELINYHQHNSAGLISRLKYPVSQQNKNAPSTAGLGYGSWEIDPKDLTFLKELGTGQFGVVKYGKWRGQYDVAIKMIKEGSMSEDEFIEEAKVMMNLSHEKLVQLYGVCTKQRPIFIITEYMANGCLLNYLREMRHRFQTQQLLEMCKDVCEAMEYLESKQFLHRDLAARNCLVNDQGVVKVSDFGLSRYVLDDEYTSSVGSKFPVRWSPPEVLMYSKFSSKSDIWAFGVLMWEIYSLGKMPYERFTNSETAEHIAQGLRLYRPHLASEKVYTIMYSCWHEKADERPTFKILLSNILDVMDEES
Chain of Mitogen-activated protein kinase kinase kinase 20 (Q9NYL2 whole entry): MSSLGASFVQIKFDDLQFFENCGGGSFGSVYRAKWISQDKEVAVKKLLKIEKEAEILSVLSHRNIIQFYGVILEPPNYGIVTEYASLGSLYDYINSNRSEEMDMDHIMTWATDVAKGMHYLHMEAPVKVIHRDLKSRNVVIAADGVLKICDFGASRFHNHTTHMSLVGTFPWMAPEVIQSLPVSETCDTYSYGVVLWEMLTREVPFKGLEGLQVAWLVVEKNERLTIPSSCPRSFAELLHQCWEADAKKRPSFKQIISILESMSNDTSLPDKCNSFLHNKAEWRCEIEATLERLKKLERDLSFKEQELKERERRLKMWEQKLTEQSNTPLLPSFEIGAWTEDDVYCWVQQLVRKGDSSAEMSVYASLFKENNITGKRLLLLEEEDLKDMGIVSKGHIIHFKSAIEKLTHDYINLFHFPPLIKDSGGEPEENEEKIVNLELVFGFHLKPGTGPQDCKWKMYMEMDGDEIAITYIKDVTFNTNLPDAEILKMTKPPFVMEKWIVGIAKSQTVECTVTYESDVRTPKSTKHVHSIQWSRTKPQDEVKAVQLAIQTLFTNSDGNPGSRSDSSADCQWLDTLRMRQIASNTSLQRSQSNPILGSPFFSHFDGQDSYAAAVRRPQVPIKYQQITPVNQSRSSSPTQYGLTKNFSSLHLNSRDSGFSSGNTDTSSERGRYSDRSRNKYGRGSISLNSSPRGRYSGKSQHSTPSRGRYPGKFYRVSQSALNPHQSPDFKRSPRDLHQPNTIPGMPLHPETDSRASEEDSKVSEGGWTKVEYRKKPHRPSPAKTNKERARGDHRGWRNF
Chain of Interleukin-1 receptor-associated kinase 1 (P51617 whole entry): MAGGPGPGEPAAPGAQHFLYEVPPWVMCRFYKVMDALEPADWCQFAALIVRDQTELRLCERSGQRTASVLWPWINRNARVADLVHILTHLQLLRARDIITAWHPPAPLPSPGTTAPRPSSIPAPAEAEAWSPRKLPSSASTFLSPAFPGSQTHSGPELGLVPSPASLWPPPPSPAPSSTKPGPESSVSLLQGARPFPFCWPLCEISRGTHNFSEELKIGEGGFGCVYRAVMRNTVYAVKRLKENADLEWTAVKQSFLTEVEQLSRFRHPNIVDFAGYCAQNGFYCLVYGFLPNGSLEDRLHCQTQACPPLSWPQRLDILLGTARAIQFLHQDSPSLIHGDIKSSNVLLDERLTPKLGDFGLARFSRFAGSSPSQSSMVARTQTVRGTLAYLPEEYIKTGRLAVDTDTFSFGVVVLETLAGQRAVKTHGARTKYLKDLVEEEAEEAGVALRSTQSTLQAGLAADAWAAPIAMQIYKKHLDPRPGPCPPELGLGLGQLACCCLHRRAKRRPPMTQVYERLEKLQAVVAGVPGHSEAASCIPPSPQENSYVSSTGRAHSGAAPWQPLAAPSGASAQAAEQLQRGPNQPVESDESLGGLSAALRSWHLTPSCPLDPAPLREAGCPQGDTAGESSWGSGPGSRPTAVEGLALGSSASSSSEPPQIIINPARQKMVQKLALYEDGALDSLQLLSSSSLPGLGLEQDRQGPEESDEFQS

As for `Cn1cc(-c2ccc(F)c(C(F)(F)F)c2)nc1C1CCN(c2ncnc3[nH]ncc23)CC1` [LY-2584702], the Kd in assay [1], in assay [2], in assay [3], in assay [4] and in assay [5] was > 30 µM (inactive) throughout.

Take `Cc1cc2c(F)c(Oc3ncnn4cc(OC[C@@H](C)OC(=O)[C@H](C)N)c(C)c34)ccc2[nH]1` [BRIVANIB ALANINATE]: the Kd in assay [1], in assay [2], in assay [3], in assay [4] and in assay [5] was > 30 µM (inactive) in each case.

Take `CNC(=O)c1ccc(C)c(-n2c(C)cc(OCc3ccc(F)cc3F)c(Br)c2=O)c1` [PH-797804]: the Kd in assay [1], in assay [2], in assay [3], in assay [4] and in assay [5] was > 30 µM (inactive) in each case.

Take `CNC(=O)c1cc(Oc2ccc(NC(=O)Nc3ccc(Cl)c(C(F)(F)F)c3)c(F)c2)ccn1` [REGORAFENIB]: the Kd in assay [1] is > 30 µM (inactive); in assay [2], > 30 µM (inactive); in assay [3], 0.274 µM (active); in assay [4] it was > 30 µM (inactive); in assay [5], 0.739 µM (active).

Turning to `Cc1c(F)cc(C(=O)NC2CC2)cc1-c1ccc(C(=O)NCC(C)(C)C)cn1` [LOSMAPIMOD], the Kd in assay [1], in assay [2], in assay [3], in assay [4] and in assay [5] was > 30 µM (inactive) each time.

For the molecule `Cc1cc(-c2cc(O)ccc2Cl)cc2nnc(Nc3ccc(OCCN4CCCC4)cc3)nc12`, the Kd in assay [1] was > 30 µM (inactive); in assay [2], > 30 µM (inactive); in assay [3], > 30 µM (inactive); in assay [4], > 30 µM (inactive); in assay [5], 0.001 µM (active).

In the case of `C=CC(=O)N1CCC(Oc2cc3c(Nc4ccc(Cl)c(Cl)c4F)ncnc3cc2OC)CC1` [POZIOTINIB], the Kd in assay [1] was > 30 µM (inactive); in assay [2], > 30 µM (inactive); in assay [3], > 30 µM (inactive); in assay [4] it was 0.003 µM (active); in assay [5], > 30 µM (inactive).

As to `O=C1NC(=O)/C(=C/c2ccc3nccc(-c4ccncc4)c3c2)S1` [GSK-1059615], the Kd in assay [1], in assay [2], in assay [3], in assay [4] and in assay [5] was > 30 µM (inactive) throughout.

On to `CC[C@@H]1C(=O)N(C)c2cnc(Nc3ccc(C(=O)N[C@H]4CC[C@H](N5CCN(CC6CC6)CC5)CC4)cc3OC)nc2N1C(C)C` [VOLASERTIB], for which the Kd in assay [1], in assay [2], in assay [3], in assay [4] and in assay [5] was > 30 µM (inactive) each time.

Turning to `O=c1sn(-c2cccc3ccccc23)c(=O)n1Cc1ccccc1` [TIDEGLUSIB], the Kd in assay [1], in assay [2], in assay [3], in assay [4] and in assay [5] was > 30 µM (inactive) each time.

In the case of `CO[C@H]1C[C@@H]2CC[C@@H](C)[C@@](O)(O2)C(=O)C(=O)N2CCCC[C@H]2C(=O)O[C@H]([C@H](C)C[C@@H]2CC[C@@H](OCCO)[C@H](OC)C2)CC(=O)[C@H](C)/C=C(\C)[C@@H](O)[C@@H](OC)C(=O)[C@H](C)C[C@H](C)/C=C/C=C/C=C/1C` [EVEROLIMUS], the Kd in assay [1], in assay [2], in assay [3], in assay [4] and in assay [5] was > 30 µM (inactive) throughout.

On to `CN(C)C(=O)c1cc2cnc(Nc3ccc(N4CCNCC4)cn3)nc2n1C1CCCC1` [RIBOCICLIB], for which the Kd in assay [1], in assay [2], in assay [3], in assay [4] and in assay [5] was > 30 µM (inactive) each time.

For `CC(C)Nc1cc(-c2c[nH]c(C(=O)N[C@H](CO)c3cccc(Cl)c3)c2)c(Cl)cn1` [ULIXERTINIB], the Kd in assay [1], in assay [2], in assay [3], in assay [4] and in assay [5] was > 30 µM (inactive) throughout.
